Km, k cat/Km and k cat data for one molecule are collected here from ChEMBL document CHEMBL1133169, “A light-inactivated antibiotic” (2000).

As usually defined, the Km is the concentration of substrate that gives half-maximal velocity.

Experiment [1] is described as follows: The turnover kinetic parameter (Km) evaluated for Class C Q908R Beta-lactamase.
Experiment [2] concerns the target Beta-lactamase TEM (Escherichia coli) (UniProt P62593). Kind of experiment: The turnover kinetic parameter (kcat/Km) evaluated for class A TEM-1 Beta-latctamase.
Experiment [3] in a line: The turnover kinetic parameter (kcat/Km) evaluated for class C Q908R Beta-latctamase.
The target in experiment [4] is Beta-lactamase TEM (Escherichia coli) (UniProt P62593). The experiment in a line: The turnover kinetic parameter (kcat) evaluated for Class A TEM-1 beta-lactamase.
Experiment [5] can be described thus: The turnover kinetic parameter (kcat) evaluated for class C Q908R Beta-latctamase.

Beta-lactamase TEM (Escherichia coli), sequence (P62593 whole entry): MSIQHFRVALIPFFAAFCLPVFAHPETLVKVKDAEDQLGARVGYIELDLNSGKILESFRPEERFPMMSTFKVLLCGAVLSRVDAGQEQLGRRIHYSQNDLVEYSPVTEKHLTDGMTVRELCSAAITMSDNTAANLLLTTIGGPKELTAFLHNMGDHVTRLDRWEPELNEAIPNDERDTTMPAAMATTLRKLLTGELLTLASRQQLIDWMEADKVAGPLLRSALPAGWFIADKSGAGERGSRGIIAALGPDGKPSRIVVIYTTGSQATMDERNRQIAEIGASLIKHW

Turning to `CC(=O)OCC1=C(C(=O)O)N2C(=O)[C@@H](NC(=O)[C@@H](Cc3ccccc3)NNC(=O)OCc3ccccc3[N+](=O)[O-])C2SC1` (stereo not given in full), in experiment [1], the Km was found to be 62 µM. Further, the k cat/Km in experiment [2] stood at 93000 M⁻¹ s⁻¹; in experiment [3] it was 2.8e+07 M⁻¹ s⁻¹. For the same molecule, the k cat stood at 7.4 s⁻¹ in experiment [4] and 1770 s⁻¹ in experiment [5].
